The NIST ThermoML archive (doi:10.1021/acs.jced.7b00429)

Experiment: xn = mol fraction of the nth substance listed
Details: 100 kPa, Liquid; for viscosity: Falling or rolling sphere viscometry; for speed of sound: Frequency=3 MHz, Single path-length method; for mass density: Vibrating tube method

C[S+](C)[O-] [dimethyl sulfoxide] + CC#N
Details	mass density [kg/m3]	speed of sound [m/s]	viscosity [mPa·s]
298.15 K, x1 = 0.0995	820.43	1299.5	0.42
298.15 K, x1 = 0.2061	862.88	1322.6	0.52
298.15 K, x1 = 0.2936	896.29	1346.2	0.57
298.15 K, x1 = 0.4055	935.15	1372	0.72
298.15 K, x1 = 0.5051	966.82	1395.1	0.86
298.15 K, x1 = 0.6001	994.77	1415.8	1.06
298.15 K, x1 = 0.7006	1022.53	1439.2	1.27
298.15 K, x1 = 0.8072	1050.32	1460.8	1.54
298.15 K, x1 = 0.8947	1071.95	1480.9	1.76
298.15 K, x1 = 1	1095.62	1490.5	2.03
303.15 K, x1 = 0.0995	815.06	1280.1	0.4
303.15 K, x1 = 0.2061	857.6	1303.8	0.49
303.15 K, x1 = 0.2936	891.05	1327.8	0.53
303.15 K, x1 = 0.4055	929.99	1354.1	0.67
303.15 K, x1 = 0.5051	961.71	1377.5	0.81
303.15 K, x1 = 0.6001	989.72	1398.5	0.97
303.15 K, x1 = 0.7006	1017.55	1422.2	1.17
303.15 K, x1 = 0.8072	1045.34	1443.9	1.42
303.15 K, x1 = 0.8947	1066.98	1464	1.6
303.15 K, x1 = 1	1090.62	1473.6	1.84
308.15 K, x1 = 0.0995	809.67	1260.6	0.39
308.15 K, x1 = 0.2061	852.28	1285	0.46
308.15 K, x1 = 0.2936	885.81	1309.9	0.52
308.15 K, x1 = 0.4055	924.82	1336.2	0.64
308.15 K, x1 = 0.5051	956.58	1360	0.75
308.15 K, x1 = 0.6001	984.67	1381.3	0.91
308.15 K, x1 = 0.7006	1012.57	1405.2	1.08
308.15 K, x1 = 0.8072	1040.36	1427	1.29
308.15 K, x1 = 0.8947	1062.01	1447.2	1.47
308.15 K, x1 = 1	1085.61	1456.8	1.67
313.15 K, x1 = 0.0995	804.26	1241.2	0.37
313.15 K, x1 = 0.2061	846.95	1266.1	0.44
313.15 K, x1 = 0.2936	880.52	1291	0.49
313.15 K, x1 = 0.4055	919.62	1318.8	0.6
313.15 K, x1 = 0.5051	951.43	1342.5	0.71
313.15 K, x1 = 0.6001	979.59	1364.1	0.85
313.15 K, x1 = 0.7006	1007.58	1388	1
313.15 K, x1 = 0.8072	1035.36	1410.3	1.19
313.15 K, x1 = 0.8947	1057.03	1431	1.35
313.15 K, x1 = 1	1080.6	1440	1.53
318.15 K, x1 = 0.0995	798.81	1221.8	0.35
318.15 K, x1 = 0.2061	841.59	1247.4	0.42
318.15 K, x1 = 0.2936	875.23	1272.7	0.47
318.15 K, x1 = 0.4055	914.41	1300.5	0.57
318.15 K, x1 = 0.5051	946.27	1325	0.67
318.15 K, x1 = 0.6001	974.52	1346.9	0.79
318.15 K, x1 = 0.7006	1002.73	1371.2	0.94
318.15 K, x1 = 0.8072	1030.38	1393.5	1.1
318.15 K, x1 = 0.8947	1052.04	1413.8	1.24
318.15 K, x1 = 1	1075.6	1423.3	1.41
323.15 K, x1 = 0.0995	793.34	1202.4	0.34
323.15 K, x1 = 0.2061	836.19	1228.6	0.4
323.15 K, x1 = 0.2936	869.91	1254.3	0.45
323.15 K, x1 = 0.4055	909.18	1282.7	0.54
323.15 K, x1 = 0.5051	941.1	1307.6	0.63
323.15 K, x1 = 0.6001	969.42	1329.7	0.75
323.15 K, x1 = 0.7006	997.71	1354.2	0.87
323.15 K, x1 = 0.8072	1025.37	1376.8	1.03
323.15 K, x1 = 0.8947	1047.05	1397.2	1.15
323.15 K, x1 = 1	1070.66	1406.7	1.3
